# According to patent US9872883B2, “Methods of producing anamorelin hydrochloride having controlled chloride content” (HELSINN HEALTHCARE SA, priority 2012, dated 2018):
# Counter-ions that a name gives are not always drawn.
# Assays:
# Assay type in all cases: physicochemical
# [1] = Long-term stability of batches having differing chloride contents, % increase in total impurities
# Experimental: The long-term stability of three separate batches of anamorelin monohydrochloride (or composition comprising anamorelin monohydrochloride) having differing chloride contents were evaluated for stability at 25° C./60% relative humidity for one, two and three years, and 40° C./75% relative humidity for one, three and six months. The results are presented below in Table 3C. % Increase in Table 3C was calculated by the following formula. % Increase=(M−I)/I×100
# I: initial total impurity (%)
# M: measured total impurity (%) at specific time (e.g., 3 months, 6 month and so forth)
# [2] = Stability testing for anamorelin dihydrochloride relative to the monohydrochloride and free base at 40° C./75% relative humidity
# Experimental: Stability testing for anamorelin dihydrochloride relative to the monohydrochloride and anamorelin free base at 40° C./75% relative humidity is reported below in Table 3D. For the anamorelin dihydrochloride preparation, anamorelin free base was dissolved in ethyl acetate and a molar excess of hydrochloric acid in ethyl acetate was added into the mixture to precipitate anamorelin dihydrochloride. The resulting anamorelin dihydrochloride was filtered and dried (chloride content approximately 12.2%). HPLC Area % in Table 3D refers to the amount of converted value of anamorelin free base in samples.
# [3] = Stability testing of spray dried amorphous anamorelin monohydrochloride (Batch A), purity and impurities by HPLC; design: Impurity 1 / Impurity 2 / Impurity 3 / Impurity 4 / Impurity 5 / Impurity 6 / Impurity 7: unit not given here
# Experimental: The purity of the anamorelin monohydrochloride (or composition comprising anamorelin monohydrochloride) was measured using high performance liquid chromatograph (HPLC) (Hewlett-Packard HP 1100 HPLC System, Agilent Technologies Inc.). The concentrated aqueous solution of anamorelin monohydrochloride A of example 1 was concentrated by spray drying using Niro QSD-3.6 (trade mark, GEA process engineering Inc.) to afford anamorelin monohydrochloride referred to as Batch A in Tables 2A and 2B) in an amorphous state. RRT refers to the relative retention time of the impurity versus anamorelin. In addition, the purity was converted into the amount of anamorelin free base within a sample without any other organic solvent since anamorelin monohydrochloride (or composition comprising anamorelin monohydrochloride) was dissolved in the solvent to be measured by HPLC condition.
# [4] = Solubility test in distilled water (HPLC); conditions: distilled water (initial pH 7)
# Experimental: A solution of standard curve was prepared to 356 μmol/L by diluting standard substance (anamorelin free base (quantitative value: 93.90%), 86.6 mmol/L, isopropyl acetate solution) with acetonitrile. In addition, a sample solution was prepared according to the process that test compound (about 100 mg) added into distilled water (10.00 g), the solution was mixed for 10 minutes at 50° C. and then was placed overnight, obtained suspension was filtered by syringe with filter (0.2 μm) and the filtrate (48.93 mg) was diluted with acetonitrile (10 mL). A solution of standard curve and a sample solution (each 5 μL) were determined by injecting into HPLC (GULLIVER1500 HPLC system, JASCO Corporation).
compound,measurement,setting,value
CN(C)N(C)C(=O)[C@@]1(Cc2ccccc2)CCCN(C(=O)[C@@H](Cc2c[nH]c3ccccc23)NC(=O)C(C)(C)N)C1 [5.9%],% Increase in Total Impurities From T0,"[1]; 25° C./60% RH, 1 Y",0%
same,% Increase in Total Impurities From T0,"[1]; 25° C./60% RH, 2 Y",20%
same,% Increase in Total Impurities From T0,"[1]; 25° C./60% RH, 3 Y",20%
same,% Increase in Total Impurities From T0,"[1]; 40° C./75% RH, 1 M",0%
same,% Increase in Total Impurities From T0,"[1]; 40° C./75% RH, 3 M",21%
same,% Increase in Total Impurities From T0,"[1]; 40° C./75% RH, 6 M",17%
"CN(C)N(C)C(=O)[C@@]1(Cc2ccccc2)CCCN(C(=O)[C@@H](Cc2c[nH]c3ccccc23)NC(=O)C(C)(C)N)C1 [Anamorelin Di-HCl, reference compound]",HPLC Area %,[2]; 1M,98.2%
same,HPLC Area %,[2]; 3M,97.1%
same,HPLC Area %,[2]; I.T.,98.9%
same,long-term stability (in words),[2]; relative to the monohydrochloride,easy to be changed
CN(C)N(C)C(=O)[C@@]1(Cc2ccccc2)CCCN(C(=O)[C@@H](Cc2c[nH]c3ccccc23)NC(=O)C(C)(C)N)C1 [5.6%],% Increase in Total Impurities From T0,"[1]; 25° C./60% RH, 1 Y",10%
same,% Increase in Total Impurities From T0,"[1]; 25° C./60% RH, 2 Y",48%
same,% Increase in Total Impurities From T0,"[1]; 25° C./60% RH, 3 Y",29%
CN(C)N(C)C(=O)[C@@]1(Cc2ccccc2)CCCN(C(=O)[C@@H](Cc2c[nH]c3ccccc23)NC(=O)C(C)(C)N)C1 [6.3%],% Increase in Total Impurities From T0,"[1]; 25° C./60% RH, 1 Y",200%
same,% Increase in Total Impurities From T0,"[1]; 25° C./60% RH, 2 Y",340%
same,% Increase in Total Impurities From T0,"[1]; 25° C./60% RH, 3 Y",360%
same,% Increase in Total Impurities From T0,"[1]; 40° C./75% RH, 1 M",140%
same,% Increase in Total Impurities From T0,"[1]; 40° C./75% RH, 3 M",400%
same,% Increase in Total Impurities From T0,"[1]; 40° C./75% RH, 6 M",500%
CN(C)N(C)C(=O)[C@@]1(Cc2ccccc2)CCCN(C(=O)[C@@H](Cc2c[nH]c3ccccc23)NC(=O)C(C)(C)N)C1 [anamorelin monohydrochloride],stability (in words),[3]; six months under each set of conditions,nearly unchanged
same,long-term stability (in words),"[1]; three years, 25° C./60% RH",nearly unchanged
same,HPLC Area %,"[2]; 1M, listed as Anamorelin Mono-HCl",99.3%
same,HPLC Area %,"[2]; 3M, listed as Anamorelin Mono-HCl",99.2%
same,HPLC Area %,"[2]; I.T., listed as Anamorelin Mono-HCl",99.9%
same,solubility,[4],>333 mg/mL
CN(C)N(C)C(=O)[C@@]1(Cc2ccccc2)CCCN(C(=O)[C@@H](Cc2c[nH]c3ccccc23)NC(=O)C(C)(C)N)C1 [anamorelin],Impurity 1,"[3]; 25° C./60% RH, 1 month",<0.05
same,Impurity 2,"[3]; 25° C./60% RH, 1 month",<0.05
same,Impurity 3,"[3]; 25° C./60% RH, 1 month",<0.05
same,Impurity 4,"[3]; 25° C./60% RH, 1 month",<0.05
same,Impurity 5,"[3]; 25° C./60% RH, 1 month",<0.05
same,Impurity 6,"[3]; 25° C./60% RH, 1 month",<0.05
same,Impurity 7,"[3]; 25° C./60% RH, 1 month",<0.05
same,anamorelin (HPLC purity),"[3]; 25° C./60% RH, 1 month",100.0%
same,Impurity 1,"[3]; 25° C./60% RH, 3 months",<0.05
same,Impurity 2,"[3]; 25° C./60% RH, 3 months",<0.05
same,Impurity 3,"[3]; 25° C./60% RH, 3 months",<0.05
same,Impurity 4,"[3]; 25° C./60% RH, 3 months",<0.05
same,Impurity 5,"[3]; 25° C./60% RH, 3 months",<0.05
same,Impurity 6,"[3]; 25° C./60% RH, 3 months",<0.05
same,Impurity 7,"[3]; 25° C./60% RH, 3 months",<0.05
same,anamorelin (HPLC purity),"[3]; 25° C./60% RH, 3 months",100.0%
same,Impurity 1,"[3]; 25° C./60% RH, 6 months",<0.05
same,Impurity 2,"[3]; 25° C./60% RH, 6 months",<0.05
same,Impurity 3,"[3]; 25° C./60% RH, 6 months",<0.05
same,Impurity 4,"[3]; 25° C./60% RH, 6 months",<0.05
same,Impurity 5,"[3]; 25° C./60% RH, 6 months",<0.05
same,Impurity 6,"[3]; 25° C./60% RH, 6 months",<0.05
same,Impurity 7,"[3]; 25° C./60% RH, 6 months",<0.05
same,anamorelin (HPLC purity),"[3]; 25° C./60% RH, 6 months",100.0%
same,Impurity 1,"[3]; 40° C./75% RH, 1 month",<0.05
same,Impurity 2,"[3]; 40° C./75% RH, 1 month",<0.05
same,Impurity 3,"[3]; 40° C./75% RH, 1 month",<0.05
same,Impurity 4,"[3]; 40° C./75% RH, 1 month",<0.05
same,Impurity 5,"[3]; 40° C./75% RH, 1 month",<0.05
same,Impurity 6,"[3]; 40° C./75% RH, 1 month",<0.05
same,Impurity 7,"[3]; 40° C./75% RH, 1 month",<0.05
same,anamorelin (HPLC purity),"[3]; 40° C./75% RH, 1 month",100.0%
same,Impurity 1,"[3]; 40° C./75% RH, 3 months",<0.05
same,Impurity 2,"[3]; 40° C./75% RH, 3 months",<0.05
same,Impurity 3,"[3]; 40° C./75% RH, 3 months",<0.05
same,Impurity 4,"[3]; 40° C./75% RH, 3 months",<0.05
same,Impurity 5,"[3]; 40° C./75% RH, 3 months",<0.05
same,Impurity 6,"[3]; 40° C./75% RH, 3 months",<0.05
same,Impurity 7,"[3]; 40° C./75% RH, 3 months",<0.05
same,anamorelin (HPLC purity),"[3]; 40° C./75% RH, 3 months",100.0%
same,Impurity 1,"[3]; 40° C./75% RH, 6 months",<0.05
same,Impurity 2,"[3]; 40° C./75% RH, 6 months",<0.05
same,Impurity 3,"[3]; 40° C./75% RH, 6 months",<0.05
same,Impurity 4,"[3]; 40° C./75% RH, 6 months",<0.05
same,Impurity 5,"[3]; 40° C./75% RH, 6 months",<0.05
same,Impurity 6,"[3]; 40° C./75% RH, 6 months",<0.05
same,Impurity 7,"[3]; 40° C./75% RH, 6 months",<0.05
same,anamorelin (HPLC purity),"[3]; 40° C./75% RH, 6 months",100.0%
same,Impurity 1,[3]; Initial,<0.05
same,Impurity 2,[3]; Initial,<0.05
same,Impurity 3,[3]; Initial,<0.05
same,Impurity 4,[3]; Initial,<0.05
same,Impurity 5,[3]; Initial,<0.05
same,Impurity 6,[3]; Initial,<0.05
same,Impurity 7,[3]; Initial,<0.05
same,anamorelin (HPLC purity),[3]; Initial,100.0%
CN(C)N(C)C(=O)[C@@]1(Cc2ccccc2)CCCN(C(=O)[C@@H](Cc2c[nH]c3ccccc23)NC(=O)C(C)(C)N)C1 [6.2%],% Increase in Total Impurities From T0,"[1]; 25° C./60% RH, 1 Y",85%
same,% Increase in Total Impurities From T0,"[1]; 25° C./60% RH, 2 Y",114%
same,% Increase in Total Impurities From T0,"[1]; 25° C./60% RH, 3 Y",100%
same,% Increase in Total Impurities From T0,"[1]; 40° C./75% RH, 1 M",107%
same,% Increase in Total Impurities From T0,"[1]; 40° C./75% RH, 3 M",100%
same,% Increase in Total Impurities From T0,"[1]; 40° C./75% RH, 6 M",171%
"CN(C)N(C)C(=O)[C@@]1(Cc2ccccc2)CCCN(C(=O)[C@@H](Cc2c[nH]c3ccccc23)NC(=O)C(C)(C)N)C1 [Anamorelin Free Base, (3R)1-(2-methylalanyl-D-tryptophyl)-3-(phenylmethyl)-3-piperidinecarboxylic acid 1,2,2trimethylhydrazide]",HPLC Area %,[2]; 1M,99.9%
same,HPLC Area %,[2]; 3M,99.7%
same,HPLC Area %,[2]; I.T.,99.7%
same,solubility,[4],0.04 mg/mL
